Values of other authors as cited in US20220226447A1, “ANTI-ABETA VACCINE THERAPY” (AC Immune SA, priority 2019, published 2022).

Conditions: human, in vivo

For AN1792: full-length Aβ1-42 vaccine, the antibody response is listed as “induced an antibody response”, the “rate of cognitive decline versus placebo-treated patients” value is listed as “slower rate of cognitive decline” and the “treated patients who developed meningoencephalitis” value is listed as 6%.
